Reference: patent publication US10040802B2, “Thienopyrazine inhibitors of IRAK4 activity” (MERCK SHARP & DOHME CORP., priority 2015, dated 2018)
Counter-ions that a name gives are not always drawn.

Molecular target: GST tagged IRAK4 (Homo sapiens (Human), UniProt Q9NWZ3)
Assay: IRAK4 Kinase Assay (IMAP fluorescence polarization)
Assay type: biochemical
Conditions: 0.5 nM GST tagged IRAK4, 100 μM ATP, 30 minutes at 25° C.
Procedure: The kinase activity of IRAK4 is determined by its ability to catalyze the phosphorylation of a fluorescent polypeptide substrate. The extent of phosphorylation is measured using the IMAP technology (Molecular Devices) where the phosphorylated fluorescent substrate binds to the large M(III)-based nanoparticles which reduces the rotational speed of the substrate and thus increases its fluorescent polarization (FP).
20 μL reaction mixture contains 10 mM TriHCl, pH 7.2, 0.5 nM GST tagged IRAK4 (SignalChem), 100 nM fluorescent peptide substrate (RP7030, Molecular Devices), 100 μM ATP, 1 mM DDT, 1 mM MgCl2, and 0.01% Tween 20. The reaction is initiated by the addition of ATP. After incubation for 30 minutes at 25° C., 60 μL of Progressive IMAP Reagent (Molecular Devices) is added to stop the reaction. Change in RP7030's FP is determined by a FP reader (Analyst HT, LJL BioSystems).

GST tagged IRAK4, sequence (Q9NWZ3 whole entry): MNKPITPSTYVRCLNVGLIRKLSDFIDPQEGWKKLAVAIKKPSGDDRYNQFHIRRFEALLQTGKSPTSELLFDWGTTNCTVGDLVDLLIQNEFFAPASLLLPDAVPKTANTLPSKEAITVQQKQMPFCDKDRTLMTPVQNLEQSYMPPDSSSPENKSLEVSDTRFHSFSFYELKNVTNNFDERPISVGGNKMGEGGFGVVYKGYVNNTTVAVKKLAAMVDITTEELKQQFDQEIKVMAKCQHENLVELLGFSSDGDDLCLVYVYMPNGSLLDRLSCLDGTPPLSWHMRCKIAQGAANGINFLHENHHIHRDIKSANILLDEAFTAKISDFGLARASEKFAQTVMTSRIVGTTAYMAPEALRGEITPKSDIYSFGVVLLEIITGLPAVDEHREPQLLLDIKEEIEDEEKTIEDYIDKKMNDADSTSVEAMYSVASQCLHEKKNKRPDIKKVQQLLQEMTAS

IC50 [nM]	Structure (SMILES)
73	Cn1cc(NC(=O)c2csc3ncc(N4C[C@@H]5CC[C@H]4CN5)nc23)c(Cl)n1 (single isomer, unassigned) [Example 16, N-(3-chloro-1-methyl-1H-pyrazol-4-yl)-2-[(1S,4S)- or (1R,4R)-2,5-diazabicyclo[2.2.2]oct-2-yl]thieno[2,3-b] pyrazine-7-carboxamide trifluoroacetate]
15	Cn1cc(NC(=O)c2csc3ncc(N4C[C@H]5CC[C@@H]4CN5)nc23)c(Cl)n1 (single isomer, unassigned) [Example 17, N-(3-chloro-1-methyl-1H-pyrazol-4-yl)-2-[(1S,4S)- or (1R,4R)-2,5-diazabicyclo[2.2.2]oct-2-yl]thieno[2,3-b] pyrazine-7-carboxamide trifluoroacetate]
70	Cn1cc(NC(=O)c2csc3ncc(N4C[C@@H]5CC[C@H]4CN5)nc23)c(Br)n1 (single isomer, unassigned) [Example 19, N-(3-bromo-1-methyl-1H-pyrazol-4-yl)-2-[(1S,4S)- or (1R,4R)-2,5-diazabicyclo[2.2.2]oct-2-yl]thieno[2,3-b] pyrazine-7-carboxamide trifluoroacetate]
19	Cn1cc(NC(=O)c2csc3ncc(N4C[C@H]5CC[C@@H]4CN5)nc23)c(Br)n1 (single isomer, unassigned) [Example 20, N-(3-bromo-1-methyl-1H-pyrazol-4-yl)-2-[(1S,4S)- or (1R,4R)-2,5-diazabicyclo[2.2.2]oct-2-yl]thieno[2,3-b] pyrazine-7-carboxamide trifluoroacetate]
7	Cn1cc(NC(=O)c2csc3ncc(N4C[C@@H]5CC[C@H]4CN5)nc23)c(C(F)F)n1 (single isomer, unassigned) [Example 22, 2-[(1S,4S)- or (1R,4R)-2,5-diazabicyclo[2.2.2]oct-2-yl]-N-[3-(difluoromethyl)-1-methyl-1H-pyrazol-4-yl]thieno[2,3-b] pyrazine-7-carboxamide trifluoroacetate]
1	Cn1cc(NC(=O)c2csc3ncc(N4C[C@H]5CC[C@@H]4CN5)nc23)c(C(F)F)n1 (single isomer, unassigned) [Example 23, 2-[(1S,4S)- or (1R,4R)-2,5-diazabicyclo[2.2.2]oct-2-yl]-N-[3-(difluoromethyl)-1-methyl-1H-pyrazol-4-yl]thieno[2,3-b] pyrazine-7-carboxamide trifluoroacetate]
46	Cn1cc(NC(=O)c2csc3ncc(N4C[C@@H]5CC[C@H]4CN5)nc23)c(C#N)n1 (single isomer, unassigned) [Example 26, N-(3-cyano-1-methyl-1H-pyrazol-4-yl)-2-[(1S,4S)- or (1R,4R)-2,5-diazabicyclo[2.2.2]oct-2-yl]thieno[2,3-b] pyrazine-7-carboxamide trifluoroacetate]
37	Cn1cc(NC(=O)c2csc3ncc(N4C[C@H]5CC[C@@H]4CN5)nc23)c(C#N)n1 (single isomer, unassigned) [Example 27, N-(3-cyano-1-methyl-1H-pyrazol-4-yl)-2-[(1S,4S)- or (1R,4R)-2,5-diazabicyclo[2.2.2]oct-2-yl]thieno[2,3-b] pyrazine-7-carboxamide trifluoroacetate]
7	Cn1cc(NC(=O)c2csc3ncc(N[C@H]4CCCCNC4)nc23)c(C(F)(F)F)n1 (single isomer, unassigned) [Example 31, 2-[(3S)- or (3R)-azepan-3-ylamino]-N-[1-methyl-3-(trifluoromethyl)-1H-pyrazol-4-yl] thieno[2,3-b] pyrazine-7-carboxamide trifluoroacetate]
0.2	Cn1cc(NC(=O)c2csc3ncc(N[C@@H]4CCCCNC4)nc23)c(C(F)F)n1 (single isomer, unassigned) [Example 33, 2-[(3S)- or (3R)-azepan-3-ylamino]-N-[3-(difluoromethyl)-1-methyl-1H-pyrazol-4-yl]thieno[2,3-b] pyrazine-7-carboxamide trifluoroacetate]
2	Cn1cc(NC(=O)c2csc3ncc(N[C@H]4CCCCNC4)nc23)c(C(F)F)n1 (single isomer, unassigned) [Example 34, 2-[(3S)- or (3R)-azepan-3-ylamino]-N-[3-(difluoromethyl)-1-methyl-1H-pyrazol-4-yl]thieno[2,3-b] pyrazine-7-carboxamide trifluoroacetate]
0.6	Cn1cc(NC(=O)c2csc3ncc(N[C@@H]4CCCCNC4)nc23)c(C(F)(F)F)n1 (single isomer, unassigned) [Example 38, 2-[(3S)- or (3R)-azepan-3-ylamino]-N-[1-methyl-3-(trifluoromethyl)-1H-pyrazol-4-yl]thieno[2,3-b] pyrazine-7-carboxamide trifluoroacetate]
812	O=C(Nc1cscc1Br)c1csc2ncc(N3C[C@@H]4CC[C@H]3CN4)nc12 (single isomer, unassigned) [Example 46, N-(4-bromothiophen-3-yl)-2-[(1S,4S)- or (1R,4R)-2,5-diazabicyclo[2.2.2]oct-2-yl]thieno[2,3-b] pyrazine-7-carboxamide]
213	O=C(Nc1cscc1Br)c1csc2ncc(N3C[C@H]4CC[C@@H]3CN4)nc12 (single isomer, unassigned) [Example 49, N-(4-bromothiophen-3-yl)-2-[(1S,4S)- or (1R,4R)-2,5-diazabicyclo[2.2.2]oct-2-yl]thieno[2,3-b] pyrazine-7-carboxamide trifluoroacetate]
285	O=C(Nc1cscc1C(F)F)c1csc2ncc(N3C[C@@H]4CC[C@H]3CN4)nc12 (single isomer, unassigned) [Example 58, 2-[(1S,4S)- or (1R,4R)-2,5-diazabicyclo [2.2.2]oct-2-yl]-N-[4-(difluoromethyl)thiophen-3-yl] thieno[2,3-b] pyrazine-7-carboxamide trifluoroacetate]
21	O=C(Nc1cscc1C(F)F)c1csc2ncc(N3C[C@H]4CC[C@@H]3CN4)nc12 (single isomer, unassigned) [Example 59, 2-[(1S,4S)- or (1R,4R)-2,5-diazabicyclo [2.2.2]oct-2-yl]-N-[4-(difluoromethyl)thiophen-3-yl] thieno[2,3-b] pyrazine-7-carboxamide trifluoroacetate]
689	O=C(Nc1ccsc1Cl)c1csc2ncc(N3C[C@@H]4CC[C@H]3CN4)nc12 (single isomer, unassigned) [Example 61, N-(2-chlorothiophen-3-yl)-2-[(1S,4S)- or (1R,4R)-2,5-diazabicylo[2.2.2]oct-2-yl]thieno[2,3-b] pyrazine-7-carboxamide trifluoroacetate]
274	O=C(Nc1ccsc1Cl)c1csc2ncc(N3C[C@H]4CC[C@@H]3CN4)nc12 (single isomer, unassigned) [Example 62, N-(2-chlorothiophen-3-yl)-2-[(1S,4S)- or (1R,4R)-2,5-diazabicylo[2.2.2]oct-2-yl]thieno[2,3-b] pyrazine-7-carboxamide trifluoroacetate]
324	O=C(Nc1ccsc1Br)c1csc2ncc(N3C[C@@H]4CC[C@H]3CN4)nc12 (single isomer, unassigned) [Example 63, N-(2-bromothiophen-3-yl)-2-[(1S,4S)- or (1R,4R)-2,5-diazabicylo[2.2.2]oct-2-yl]thieno[2,3-b] pyrazine-7-carboxamide trifluoroacetate]
767	O=C(Nc1ccsc1Br)c1csc2ncc(N3C[C@H]4CC[C@@H]3CN4)nc12 (single isomer, unassigned) [Example 64, N-(2-bromothiophen-3-yl)-2-[(1S,4S)- or (1R,4R)-2,5-diazabicylo[2.2.2]oct-2-yl]thieno[2,3-b] pyrazine-7-carboxamide trifluoroacetate]
310	N#Cc1cscc1NC(=O)c1csc2ncc(N3C[C@@H]4CC[C@H]3CN4)nc12 (single isomer, unassigned) [Example 65, N-(4-cyanothiophen-3-yl)-2-[(1S,4S)- or (1R,4R)-2,5-diazabicylo[2.2.2]oct-2-yl]thieno[2,3-b] pyrazine-7-carboxamide formate]
220	N#Cc1cscc1NC(=O)c1csc2ncc(N3C[C@H]4CC[C@@H]3CN4)nc12 (single isomer, unassigned) [Example 66, N-(4-cyanothiophen-3-yl)-2-[(1S,4S)- or (1R,4R)-2,5-diazabicylo[2.2.2]oct-2-yl]thieno[2,3-b] pyrazine-7-carboxamide formate]
228	N#Cc1sccc1NC(=O)c1csc2ncc(N3C[C@@H]4CC[C@H]3CN4)nc12 (single isomer, unassigned) [Example 69, N-(2-cyanothiophen-3-yl)-2-[(1S,4S)- or (1R,4R)-2,5-diazabicyclo[2.2.2]oct-2-yl]thieno[2,3-b] pyrazine-7-carboxamide trifluoroacetate]
224	N#Cc1sccc1NC(=O)c1csc2ncc(N3C[C@H]4CC[C@@H]3CN4)nc12 (single isomer, unassigned) [Example 70, N-(2-cyanothiophen-3-yl)-2-[(1S,4S)- or (1R,4R)-2,5-diazabicyclo[2.2.2]oct-2-yl]thieno[2,3-b] pyrazine-7-carboxamide trifluoroacetate]
3650	O=C(Nc1ccsc1C(F)(F)F)c1csc2ncc(N3C[C@@H]4CC[C@H]3CN4)nc12 (single isomer, unassigned) [Example 74, 2-[(1S,4S)- or (1R,4R)-2,5-diazabicyclo [2.2.2]oct-2-yl]-N-[2-(trifluoromethyl)thiophen-3-yl] thieno[2,3-b] pyrazine-7-carboxamide trifluoroacetate]
